Literature values, collected in patent US20110287117A1, “Adjuvant Therapy in the Treatment of Gouty Arthritis” (UNIVERSITY OF MEDICINE AND DENTISTRY OF NEW JERSEY, priority 2009, published 2011).

Details: in vivo

recombinant IL-6: recombinant interleukin 6 administered in a cited study
serum SU level: lowered
urinary secretion of uric acid: increased
